From US11180530B2, “Salt of phenylpropionamide derivative and preparation method therefor” (priority 2017, dated 2021)
Read-outs that look alike come from different tables or passages of the source. Where a SMILES comes first, the peptide text is derived from it. [ ]: non-standard residue; d: D form. The star is where a group is joined. Gly(N-(2R-Ph-propyl)) = C[C@@H](CNCC(=O)O)c1ccccc1; Piperidin1yl(4-NH2,4-COOH) = NC1(C(=O)O)CCN(*)CC1

Columns and labels:
[1] = tested on: inflammatory pain induced by carrageenan in rats; test: Carrageenan inflammatory pain model, plantar tenderness (Electronic Von Frey); assay type: in vivo, Wistar rats; details: for tenderness threshold: 30 min before test, model group 7.6 g
Method: Male Wistar rats for experiment purchased from Shanghai Slack Experimental Animal Co, Ltd. (Shanghai, China, certificate No. 2015000513408, license SOCK (Shanghai) 2012-0002, 150-180 g at the time of purchase, 5 rats/cage, 12/12 hour light/dark cycle adjustment, constant temperature of 23±1° C., humidity of 50-60%, free intake of water. After the animals were purchased, they were reared for more than 7 days to start the experiment.
1% λ-carrageenan mixed with physiological saline and stirred overnight, forming a jelly suspension.
The experimental method was improved according to the method in document 1 (Kazunari Nakao et al.). Before the inflammatory pain experiment, rats were randomly divided into the following groups according to body weight: blank control group, model group, 0.1 mg/kg group and 0.3 mg/kg group. There were 8 rats in each group. Inflammatory pain model was established by subcutaneous injection of 1% carrageenan (100 μl) into the foot pad of Wistar rats. After 4 hours, the rats were tested for plantar tenderness to evaluate their mechanical pain threshold, the rats were administrated single caudal vein administration (1 ml/kg) 30 min before the test, and the control group and model group were given the corresponding solvents.
Electronic Von Frey: UGO BASILE, type 38450.
The experimental data were expressed by Mean±standard deviation (S.D.). Statistical comparison was carried out with Excel software T test.

[2] = assay type: physicochemical; details: for Stability (conclusion in words): illumination and high temperature
Method: Samples of the compound represented by formula (I) and acetate, hydrochloride, citrate and phosphate of the compound represented by formula (I) were respectively placed open and evenly spread, so that the stability of the samples were investigated under the conditions of room temperature, heating (40° C., 60° C.), illumination (4500Lux) and high humidity (RH75% and RH90%). The sampling period is 20 days.

[3] = Solubility (salt formation research); assay type: physicochemical
[4] = Canine pharmacokinetic test, intravenous administration; assay type: in vivo; details: Beagle dogs
Text: Beagle dogs were used as test animals, and LC/MS/MS methods were used to determine the drug concentration in plasma of Beagle dogs at different time points after intravenous administration of the compound represented by formula (I). To study the pharmacokinetic behavior of the compound of the present invention in Beagle dogs and evaluate its pharmacokinetic characteristics.
3 male beagle dogs provided by Medicilon Pharmaceutical Technology (Shanghai) Co, Ltd in each group.
A proper amount of sample was weighted and 100% normal saline was added for dissolution.
Beagle dogs 3, male, for one group; intravenous administration with a volume of 2 ml/kg after fasting for one night.
For the intravenous administration group, 1.0 ml of blood was collected from jugular vein before and 5 mins, 15 mins, 0.5, 1.0, 2.0, 4.0, 8.0, 12.0, 24.0 hrs after administration, then placed in a heparinized test tube, centrifuged at 3500 rpm for 10 mins to separate plasma, and stored at −80° C.
LC/MS/MS method was used to determine the content of compound in Beagle dog plasma after intravenous administration.

[5] = assay type: physicochemical
Method: Samples of acetate, hydrochloride, citrate and phosphate of the compound represented by formula (I) were subjected to a long-term accelerated stability investigation for 6 months under dark and sealed conditions (the inner package is a medicinal low-density polyethylene composite film and the outer package is aluminum foil), humidity (60% RH), temperature (4° C., 25° C.) and with/without nitrogen protection.

[6] = 25° C., 60% RH, nitrogen protection, 1 month
[7] = 25° C., 60% RH, nitrogen protection, 3 months
[8] = 25° C., 60% RH, nitrogen protection, 6 months
[9] = 25° C., 60% RH, nitrogen protection, initial

| Compound | Purity % ([2]; 4500 Lux, 0 days (initial)) [%] | Purity % ([2]; 4500 Lux, 5 days) [%] | Purity % ([2]; 4500 Lux, 10 days) [%] | Purity % ([2]; 4500 Lux, 20 days) [%] | Purity % ([5]; 4° C., 1 month) [%] | Purity % ([5]; 4° C., 3 months) [%] | Purity % ([5]; 4° C., 6 months) [%] | Purity % ([5]; 4° C., initial) [%] | Purity % [5, 6] [%] | Purity % [5, 7] [%] | Purity % [5, 8] [%] | Purity % [5, 9] [%] | Purity % ([5]; 25° C., 60% Rh, 1 month) [%] | Purity % ([5]; 25° C., 60% Rh, 3 months) [%] | Purity % ([5]; 25° C., 60% Rh, 6 months) [%] | Purity % ([5]; 25° C., 60% Rh, initial) [%] | further results |
| --- | --- | --- | --- | --- | --- | --- | --- | --- | --- | --- | --- | --- | --- | --- | --- | --- | --- |
| CC(C)C[C@@H](NC(=O)[C@@H](Cc1ccccc1)NC(=O)CNC[C@H](C)c1ccccc1)C(=O)N[C@H](CCCCN)C(=O)N1CCC(N)(C(=O)O)CC1 [Embodiment 20, 4-amino-1-((2R,5R,8R,14R)-2-(4-aminobutyl)-8-benzyl-5-isobutyl-4,7,10-trioxo-14-phenyl-3,6,9,12-tetraazapentadecan-1-acyl)piperidine-4-carboxylic acid] (H-[Gly(N-(2R-Ph-propyl))][dF][dL][dK]-{Piperidin1yl(4-NH2,4-COOH)}) | 99.68 | 97.76 | 97.72 | 97.15 |  |  |  |  |  |  |  |  |  |  |  |  | increase range of tenderness threshold compared with the model group ([1]; 0.1 mg/kg i.v.): 79.5%; tenderness threshold ([1]; 0.1 mg/kg i.v. single): 13.7 g; increase range of tenderness threshold compared with the model group ([1]; 0.3 mg/kg i.v.): 204.5%; tenderness threshold ([1]; 0.3 mg/kg i.v. single): 23.2 g; Purity % ([2]; 40° C., 5 days): 97.60%; Stability (conclusion in words) ([2]; 20 days, listed as free state): degraded greatly; solubility (in words) [3]: low; pharmacokinetic properties (in words) [4]: good |
| CC(C)C[C@@H](NC(=O)[C@@H](Cc1ccccc1)NC(=O)CNC[C@H](C)c1ccccc1)C(=O)N[C@H](CCCCN)C(=O)N1CCC(N)(C(=O)O)CC1 [Embodiment 9, 4-amino-1-((2R,5R,8R,14R)-2-(4-aminobutyl)-8-benzyl-5-isobutyl-4,7,10-trioxo-14-phenyl-3,6,9,12-tetraazapentadecan-1-acyl)piperidine-4-carboxylic acid] (H-[Gly(N-(2R-Ph-propyl))][dF][dL][dK]-{Piperidin1yl(4-NH2,4-COOH)}) | 96.50 | 95.57 | 94.27 | 94.24 | 99.51 | 99.51 | 98.57 | 99.54 | 99.52 | 99.50 | 98.54 | 99.54 | 99.46 | 99.51 | 99.51 | 99.54 | Aspect ([5]; 4° C., 1 month): White; Aspect ([5]; 4° C., 3 months): White; Aspect ([5]; 4° C., 6 months): White; Aspect ([5]; 4° C., initial): White |
| CC(C)C[C@@H](NC(=O)[C@@H](Cc1ccccc1)NC(=O)CNC[C@H](C)c1ccccc1)C(=O)N[C@H](CCCCN)C(=O)N1CCC(N)(C(=O)O)CC1 [Phosphate (1:3)] (H-[Gly(N-(2R-Ph-propyl))][dF][dL][dK]-{Piperidin1yl(4-NH2,4-COOH)}) |  |  |  |  |  |  |  |  |  |  |  |  |  |  |  |  | Stability (conclusion in words) ([2]; 20 days): relatively stable or slightly degraded; Long-term stability (conclusion in words) ([5]; 6 months, 4° C., 25° C., 60% RH, with/without nitrogen protection, amorphous samples): stable |
| CC(C)C[C@@H](NC(=O)[C@@H](Cc1ccccc1)NC(=O)CNC[C@H](C)c1ccccc1)C(=O)N[C@H](CCCCN)C(=O)N1CCC(N)(C(=O)O)CC1 [Embodiment 15, 4-amino-1-((2R,5R,8R,14R)-2-(4-aminobutyl)-8-benzyl-5-isobutyl-4,7,10-trioxo-14-phenyl-3,6,9,12-tetraazapentadecan-1-acyl)piperidine-4-carboxylic acid] (H-[Gly(N-(2R-Ph-propyl))][dF][dL][dK]-{Piperidin1yl(4-NH2,4-COOH)}) | 96.32 | 96.07 | 95.62 | 95.76 | 99.63 | 99.62 | 99.66 | 99.64 | 9.65 | 99.62 | 99.63 | 99.64 | 99.64 | 99.63 | 99.64 | 99.64 |  |
